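Each compound was tested at five concentrations against cells in 96-well plates for 48 hours. At the GI50, growth is halved.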 Active and inactive are the calls of the source. Rule as the data show it: active = GI50 up to about 1.1 µM and inactive = higher.
Tests used:
Experiment in all cases: growth of human tumour cells (NCI), 48 h
NCI-H522 = system: NCI-H522
NCI/ADR-RES = system: NCI/ADR-RES
SNB-75 = system: SNB-75
MCF7 = system: MCF7
UO-31 = system: UO-31
SNB-19 = system: SNB-19
RXF 393 = system: RXF 393
HT-29 = system: HT-29
OVCAR-8 = system: OVCAR-8
KM12 = system: KM12
A498 = system: A498
TK-10 = system: TK-10
OVCAR-4 = system: OVCAR-4
CAKI-1 = system: CAKI-1
OVCAR-5 = system: OVCAR-5
ACHN = system: ACHN
NCI-H23 = system: NCI-H23
MDA-MB-231 = system: MDA-MB-231
U-251 = system: U-251
SK-MEL-2 = system: SK-MEL-2
MDA-N = system: MDA-N
T47D = system: T47D
IGROV-1 = system: IGROV-1
786-0 = system: 786-0
SW-620 = system: SW-620
A549 = system: A549
SF-539 = system: SF-539
MDA-MB-435 = system: MDA-MB-435
SK-MEL-28 = system: SK-MEL-28
HCT-116 = system: HCT-116
SF-268 = system: SF-268
NCI-H460 = system: NCI-H460
SK-MEL-5 = system: SK-MEL-5
SR = system: SR
CCRF-CEM = system: CCRF-CEM
UACC-257 = system: UACC-257
MOLT-4 = system: MOLT-4
HCC 2998 = system: HCC 2998
Malme-3M = system: Malme-3M
PC-3 = system: PC-3
HL-60 = system: HL-60
EKVX = system: EKVX
HOP-62 = system: HOP-62
M14 = system: M14
HCT-15 = system: HCT-15
COLO 205 = system: COLO 205
SN12C = system: SN12C
NCI-H226 = system: NCI-H226
SF-295 = system: SF-295
DU-145 = system: DU-145
HOP-92 = system: HOP-92
Hs-578T = system: Hs-578T
LOX IMVI = system: LOX IMVI
K562 = system: K562
OVCAR-3 = system: OVCAR-3
UACC-62 = system: UACC-62
RPMI-8226 = system: RPMI-8226

## COC(=O)c1cncc2c1CC1C3(C(=O)OC)C=NC(C4C(CO)=CCC43)C21C (centres undefined)
NCI-H522
  GI50: > 100 µM (inactive)
NCI/ADR-RES
  GI50: > 100 µM (inactive)
SNB-75
  GI50: 83.4 µM (inactive)
MCF7
  GI50: > 100 µM (inactive)
UO-31
  GI50: > 100 µM (inactive)
SNB-19
  GI50: > 100 µM (inactive)
RXF 393
  GI50: > 100 µM (inactive)
HT-29
  GI50: > 100 µM (inactive)
OVCAR-8
  GI50: > 100 µM (inactive)
KM12
  GI50: > 100 µM (inactive)
A498
  GI50: > 100 µM (inactive)
TK-10
  GI50: > 100 µM (inactive)
OVCAR-4
  GI50: > 100 µM (inactive)
CAKI-1
  GI50: > 100 µM (inactive)
OVCAR-5
  GI50: > 100 µM (inactive)
ACHN
  GI50: > 100 µM (inactive)
NCI-H23
  GI50: > 100 µM (inactive)
MDA-MB-231
  GI50: > 100 µM (inactive)
U-251
  GI50: > 100 µM (inactive)
SK-MEL-2
  GI50: > 100 µM (inactive)
MDA-N
  GI50: > 100 µM (inactive)
T47D
  GI50: > 100 µM (inactive)
IGROV-1
  GI50: > 100 µM (inactive)
786-0
  GI50: > 100 µM (inactive)
SW-620
  GI50: > 100 µM (inactive)
A549
  GI50: > 100 µM (inactive)
SF-539
  GI50: > 100 µM (inactive)
MDA-MB-435
  GI50: > 100 µM (inactive)
SK-MEL-28
  GI50: > 100 µM (inactive)
HCT-116
  GI50: > 100 µM (inactive)
SF-268
  GI50: > 100 µM (inactive)
NCI-H460
  GI50: > 100 µM (inactive)
SK-MEL-5
  GI50: > 100 µM (inactive)
SR
  GI50: > 100 µM (inactive)
CCRF-CEM
  GI50: > 100 µM (inactive)
UACC-257
  GI50: > 100 µM (inactive)
MOLT-4
  GI50: > 100 µM (inactive)
HCC 2998
  GI50: > 100 µM (inactive)
Malme-3M
  GI50: > 100 µM (inactive)
PC-3
  GI50: > 100 µM (inactive)
HL-60
  GI50: > 100 µM (inactive)
EKVX
  GI50: > 100 µM (inactive)
HOP-62
  GI50: > 100 µM (inactive)
M14
  GI50: > 100 µM (inactive)
HCT-15
  GI50: > 100 µM
COLO 205
  GI50: > 100 µM (inactive)
SN12C
  GI50: > 100 µM (inactive)
NCI-H226
  GI50: > 100 µM (inactive)
SF-295
  GI50: > 100 µM (inactive)
DU-145
  GI50: > 100 µM (inactive)
HOP-92
  GI50: > 100 µM (inactive)
Hs-578T
  GI50: > 100 µM (inactive)
LOX IMVI
  GI50: > 100 µM (inactive)

## CCOC(=O)c1ccc(Nc2nc3ccccc3nc2-c2cccs2)cc1
NCI-H522
  GI50: 28.1 µM (inactive)
NCI/ADR-RES
  GI50: 35.6 µM (inactive)
SNB-75
  GI50: 16.8 µM (inactive)
MCF7
  GI50: 34 µM (inactive)
UO-31
  GI50: 73.6 µM (inactive)
SNB-19
  GI50: > 100 µM (inactive)
RXF 393
  GI50: 23.7 µM (inactive)
OVCAR-8
  GI50: 93.1 µM (inactive)
KM12
  GI50: 49.1 µM (inactive)
TK-10
  GI50: 23.3 µM (inactive)
CAKI-1
  GI50: 21.9 µM (inactive)
OVCAR-5
  GI50: > 100 µM (inactive)
ACHN
  GI50: 47.8 µM (inactive)
NCI-H23
  GI50: > 100 µM (inactive)
MDA-MB-231
  GI50: 18.7 µM (inactive)
U-251
  GI50: 97.9 µM (inactive)
K562
  GI50: 46.8 µM (inactive)
MDA-N
  GI50: 19 µM (inactive)
T47D
  GI50: 16.9 µM (inactive)
IGROV-1
  GI50: > 100 µM (inactive)
786-0
  GI50: 50.7 µM (inactive)
SW-620
  GI50: > 10 µM (inactive)
A549
  GI50: 66.4 µM (inactive)
SF-539
  GI50: > 100 µM (inactive)
MDA-MB-435
  GI50: 36.9 µM (inactive)
SK-MEL-28
  GI50: > 100 µM (inactive)
HCT-116
  GI50: 80.5 µM (inactive)
SF-268
  GI50: 93.5 µM (inactive)
NCI-H460
  GI50: 34 µM (inactive)
SK-MEL-5
  GI50: 98.6 µM (inactive)
SR
  GI50: 26.9 µM (inactive)
CCRF-CEM
  GI50: 41.8 µM (inactive)
UACC-257
  GI50: 39.8 µM (inactive)
MOLT-4
  GI50: 23.6 µM (inactive)
HCC 2998
  GI50: 23.1 µM (inactive)
Malme-3M
  GI50: > 100 µM (inactive)
PC-3
  GI50: 24.8 µM (inactive)
HL-60
  GI50: 24.8 µM (inactive)
EKVX
  GI50: 35.3 µM (inactive)
HOP-62
  GI50: > 100 µM (inactive)
OVCAR-3
  GI50: 31 µM (inactive)
HCT-15
  GI50: 25.3 µM
UACC-62
  GI50: 4.24 µM (inactive)
COLO 205
  GI50: 96.6 µM (inactive)
SN12C
  GI50: 21.2 µM (inactive)
NCI-H226
  GI50: > 100 µM (inactive)
SF-295
  GI50: 49.4 µM (inactive)
DU-145
  GI50: > 100 µM (inactive)
Hs-578T
  GI50: > 100 µM (inactive)
LOX IMVI
  GI50: 21.9 µM (inactive)
RPMI-8226
  GI50: 62.8 µM (inactive)

Reference: ChEMBL document CHEMBL1201862, “PubChem BioAssay data set” (2004)
